Tests used:
estrogen receptor-α = estrogen receptor-α (Homo sapiens, UniProt P03372); assay: interaction with sex hormone receptor; format: binding
estrogen receptor-β = estrogen receptor-β (Homo sapiens, UniProt Q92731); assay: interaction with sex hormone receptor; format: binding
[1] = tested on: human T lymphocytes (PBMC); assay: human mixed lymphocyte reaction (MLR); format: cell-based; details: 300 nM or 30 nM
[2] = tested on: insulin sensitivity in db/db diabetic mice; assay: hyperinsulinemic-euglycemic clamp; format: in vivo; details: oral gavage 14 days; insulin 10 mU/kg/min
Protocol: Glucose lowering in 8 week old db/db diabetic mice. The hyperinsulinemic-euglycemic clamp protocol was conducted to measure insulin sensitivity in vivo. In this procedure, insulin was administered to raise the insulin concentration while glucose was infused to maintain euglycemia or a fixed, normal blood glucose level (about 180 mg/dL). […] The objective of this protocol was to investigate characterize the capacity of 17α-ethynylandrost-5-ene-3β,7β,17β-triol and androst-5-ene-3β,7β,16α,17β-tetrol to ameliorate systemic insulin resistance and improve whole body glucose disposal in the hyperinsulinemic-euglycemic clamp model. The degree of skeletal muscle and hepatic insulin sensitivity and tissue specific glucose uptake were also assessed. The animals were dosed daily by oral gavage for 14 days. On Day 10 of treatment catheters were implanted in the carotid artery and jugular vein. On the day of the clamp (day 14) the compound was administered at 7:30 am.
Body weight and glucose concentration were assessed on day 0, 7 and day 14 of treatment. On day 14 a euglycemic hyperinsulinemic clamp was performed. Food was removed at 7:30 am at 10:30 a primed continuous infusion of [3-^3H]-glucose (0.05 μCi/min). A baseline blood sample was taken at 12:50 (−10 min) and at 1:00 (0 min) a euglycemic hyperinsulinemic clamp was initiated by administering 10 mU /kg/min of insulin. Glucose was infused at a variable rate to clamp the glucose concentration at ˜180 mg/dl. A bolus of [^14C]-2deoxyglucose was given at the end of the study to assess tissue specific glucose uptake. Plasma ^14C 2-deoxyglucose was assessed at 122, 125, 130, 135, 145 min. […]
Analysis was conducted as follows. Plasma samples were deproteinized with Ba(OH)2 (0.3 N) and ZnSO4 (0.3 N), dried and radioactivity was assessed on scintillation counter (Packard TRICARB 2900 TR, Meriden, Conn.). […] One supernatant was directly counted to determine radioactivity from both [14C] […] A second aliquot was treated with Ba(OH)2 and ZnSO4 to remove ^14C DGP and any tracer incorporated into glycogen and then counted to determine radioactivity from free [^14C]DG(2). [^14C]DGP was calculated as the difference between the two aliquots. […] Rg, an index of tissue specific glucose uptake was calculated as previously described (E.W. Kraegen et al., Am. J. Physiol., 248:E353-E362, 1985). Whole body glucose turnover was calculated as the ratio of the ^3H glucose infusion rate (dpm/kg/min) and arterial plasma glucose specific activity (dpm/mg). Endogenous glucose production was calculated as the difference between the whole body glucose turnover and the exogenous glucose infusion rate (R. N. Bergman et al., Endocr. Rev., 6:45-86, 1985).

Chain of estrogen receptor-β (Q92731 whole entry, species assumed): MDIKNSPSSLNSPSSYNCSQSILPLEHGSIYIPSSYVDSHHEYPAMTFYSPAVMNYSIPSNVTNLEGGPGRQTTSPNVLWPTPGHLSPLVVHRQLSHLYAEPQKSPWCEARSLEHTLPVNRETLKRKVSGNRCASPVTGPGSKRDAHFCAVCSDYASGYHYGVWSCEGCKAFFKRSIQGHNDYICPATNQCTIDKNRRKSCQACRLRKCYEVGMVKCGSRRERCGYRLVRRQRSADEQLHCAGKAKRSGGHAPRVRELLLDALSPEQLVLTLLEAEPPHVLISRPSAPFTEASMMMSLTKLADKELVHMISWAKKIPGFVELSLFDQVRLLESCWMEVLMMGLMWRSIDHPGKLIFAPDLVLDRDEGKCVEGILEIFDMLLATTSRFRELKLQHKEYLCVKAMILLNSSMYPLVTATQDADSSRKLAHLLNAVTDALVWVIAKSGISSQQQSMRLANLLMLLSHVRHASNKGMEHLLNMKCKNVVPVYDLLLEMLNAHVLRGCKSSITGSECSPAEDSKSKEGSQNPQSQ
Chain of estrogen receptor-α (P03372 whole entry): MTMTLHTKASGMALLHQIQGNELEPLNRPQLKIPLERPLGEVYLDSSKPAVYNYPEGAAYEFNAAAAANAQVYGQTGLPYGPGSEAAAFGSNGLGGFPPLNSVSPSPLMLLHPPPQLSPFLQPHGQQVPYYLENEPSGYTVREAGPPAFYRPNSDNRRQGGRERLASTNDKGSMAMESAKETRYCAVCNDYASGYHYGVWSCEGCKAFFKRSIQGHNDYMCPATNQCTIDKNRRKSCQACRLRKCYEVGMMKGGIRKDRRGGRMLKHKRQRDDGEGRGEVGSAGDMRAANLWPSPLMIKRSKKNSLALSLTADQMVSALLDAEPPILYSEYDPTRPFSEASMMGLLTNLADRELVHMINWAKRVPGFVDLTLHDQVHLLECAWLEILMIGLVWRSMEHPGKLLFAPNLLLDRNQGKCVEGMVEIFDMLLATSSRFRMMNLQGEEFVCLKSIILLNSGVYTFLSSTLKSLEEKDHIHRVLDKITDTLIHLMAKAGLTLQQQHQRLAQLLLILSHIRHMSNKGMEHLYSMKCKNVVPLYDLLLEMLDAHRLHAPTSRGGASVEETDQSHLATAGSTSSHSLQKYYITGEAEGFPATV

## C#C[C@]1(O)CC[C@H]2[C@@H]3[C@@H](O)C=C4C[C@@H](O)CC[C@]4(C)[C@H]3CC[C@@]21C [17α-ethynylandrost-5-ene-3β,7β,17β-triol]
Estrogen receptor-α
  interaction with estrogen receptor-α: do not interact
Estrogen receptor-β
  interaction with estrogen receptor-β: do not interact
[1]
  immune suppression (inhibition of the MLR): not appreciably immune suppressive
[2]
  glucose infusion rate compared to vehicle control: increased the glucose infusion rate
